In the NIST ThermoML archive (doi:10.1016/j.fluid.2006.06.017):
Numbers after ± are expanded uncertainties.

What was measured:
[1] = Liquid; for mass density: 298.15 K, 101.33 kPa; for vapor or sublimation pressure: Ebulliometric method (Recirculating still)
[2] = refractive index (Na D-line) (dimensionless); conditions: 298.15 K; 101.33 kPa; Liquid; Standard Abbe refractometry

CCCO [propan-1-ol]
Conditions | mass density [kg/m3] | refractive index
[1] | 799.62 ± 0.48 | –
[2] | – | 1.3836 ± 0.0005

[1]
Conditions | vapor or sublimation pressure [kPa]
332.63 K | 20 ± 1
369.75 K | 101.3 ± 0.2

CCCOCCC [dipropyl ether]
Conditions | mass density [kg/m3] | refractive index
[1] | 741.81 ± 0.56 | –
[2] | – | 1.3784 ± 0.0005

[1]
Conditions | vapor or sublimation pressure [kPa]
302.6 K | 10.47 ± 0.2
306.36 K | 12.43 ± 0.2
310.41 K | 14.95 ± 0.2
313.39 K | 16.91 ± 0.2
315.97 K | 18.97 ± 0.2
317.33 K | 20 ± 1
318.45 K | 20.97 ± 0.2
320.69 K | 22.93 ± 0.2
323.79 K | 25.95 ± 0.2
326.58 K | 28.97 ± 0.21
329.15 K | 31.95 ± 0.21
331.52 K | 34.95 ± 0.21
333.76 K | 37.95 ± 0.21
335.79 K | 40.9 ± 0.21
337.8 K | 43.95 ± 0.21
339.62 K | 46.85 ± 0.21
341.27 K | 49.7 ± 0.21
343.07 K | 52.91 ± 0.22
345.22 K | 56.95 ± 0.22
347.19 K | 60.85 ± 0.22
349.07 K | 64.87 ± 0.22
351.36 K | 69.9 ± 0.22
353.45 K | 74.84 ± 0.23
355.48 K | 79.91 ± 0.23
357.37 K | 84.8 ± 0.23
359.21 K | 89.75 ± 0.23
360.93 K | 94.65 ± 0.24
363.16 K | 101.3 ± 0.24

CCCCO [butan-1-ol]
Conditions | mass density [kg/m3] | refractive index
[1] | 805.65 ± 0.22 | –
[2] | – | 1.3976 ± 0.0005

[1]
Conditions | vapor or sublimation pressure [kPa]
351.18 K | 20 ± 1
390.75 K | 101.3 ± 0.2
